This is an account of results in patent US20260152751A1, “INTERFERING RNA FOR INHIBITING JAK1 GENE EXPRESSION AND USE THEREOF” (Jenkem Technology Co., Ltd. (BEIJING), priority 2024, published 2026).

[Ψ] = pseudouridine; d = 2'-deoxy (DNA); r = 2'-OH (RNA)

The subject of one data set is JAK1 gene. Kind of data set: siRNA screening: qPCR of JAK1 relative expression in transfected 293T cells. In kind it is cell-based, human. The note with it: siRNA 50 nM, 48 h after transfection, GAPDH reference, siNC = 100.00. How it is done:
(§1) One day prior to transfection, 293T cells were seeded into a 24-well cell culture plate at 1×10^5 cells/well, and the culture medium was 500 μL of DMEM containing 10% FBS and 1% penicillin-streptomycin. Three replicate wells were made for each group. The culture plate was placed in an incubator with 5% CO2 at 37° C. for 24 h to allow the cells to adhere to the wall. On the day of transfection, the culture medium was changed to 450 μL of DMEM culture medium without antibiotics (containing 10% FBS). The siRNAs were diluted with 25 μL of Opti-MEM culture medium, and the control group was siNC at the same concentration; a Lipofectamine™RNAiMAX transfection reagent (Lip) was diluted with another 25 μL of Opti-MEM culture medium, and the mixture was left to stand at room temperature for 5 min; and the two dilutions were uniformly mixed and left to stand at room temperature for 5 min. 50 μL of the mixed solution described above was added to each well to obtain a final transfection volume of 500 μL, and the working concentration of the siRNA was 50 nM. After the cells were further cultured in an incubator with 5% CO2 at 37° C. for 48 h, the total RNA of the cells was extracted.
RNA was extracted using Eastep™ Super total RNA extraction kit, with the detailed procedures as follows:
1) 300 μL of RNA lysis solution and 300 μL of RNA diluent were added into each well of the 24-well cell culture plate, and the mixture was uniformly mixed and subsequently transferred to a 1.5 mL centrifuge tube. The mixture was centrifuged at 14000 g for 10 min, and the supernatant was carefully pipetted into a new 1.5 mL centrifuge tube.
2) A 0.5-fold volume of absolute ethanol was added, and the mixture was uniformly mixed by allowing the tube to be repeatedly upside down 15-20 times. Subsequently, the mixture was transferred to a centrifuge column and centrifuged at 12000 g for 1 min. The filtrate was discarded.
3) 600 μL of RNA wash buffer was added, and the mixture was centrifuged at 12000 g for 1 min. The filtrate was discarded.
4) 50 μL of DNase I incubation buffer was added, followed by DNA digestion at room temperature for 15 min.
5) 600 μL of RNA wash buffer was added, the mixture was centrifuged at 12000 g for 1 min, and the filtrate was discarded. This procedure was repeated once. Subsequently, the mixture was centrifuged at 14000 g for 2 min to remove the residual RNA wash buffer, and then the centrifuge column was placed in a collection tube.
6) A proper amount of RNase-free H2O was added, and the mixture was left to stand for 15 min at room temperature, followed by centrifugation at 14000 g for 1 min. The RNA quality and concentration were detected using NanoDrop™. The extracted RNA was incubated at 70° C. for 5 min and immediately placed in an ice bath for 5 min for later use.
(§2) 1) The RNA was reverse-transcribed into a cDNA template using the All-in-One First-Strand Synthesis MasterMix (LABLEAD, Cat. No.: F0202) kit. The reaction system was established according to Table 2, where all components were mixed uniformly and centrifuged to collect the liquid at the bottom of a tube, and the PCR program was run according to the settings of 37° C. for 2 min, 55° C. for 15 min, and 85° C. for 5 min, thereby giving the cDNA template.
(§3) 2) The gene expression level was detected using the Taq SYBR® Green qPCR Premix (LABLEAD, Cat. No.: R0202) kit, and the qPCR system was established according to Table 3. All components were mixed uniformly and centrifuged to collect the liquid at the bottom of a tube, and the PCR program was run according to the following settings: • Step1: 95° C. 30 s; • Step2: 95° C. 10 s; • Step3: 60° C. 30 s+Plate Read; • Step4: Go to Step2, 40 times; • Step5: Melt Curve 65 to 95° C., increment 0.5° C., for 5 s+Plate Read.
(§4) GAPDH was used as an endogenous reference to detect the relative expression level of JAK1 gene, and the sequences of the primers used are as follows: […]
For orientation: Quantitative PCR measures a nucleic acid by following its amplification.
Take “siJAK1-5026: siRNA targeting JAK1; sense strand SEQ ID NO: 27 dTdT, antisense strand SEQ ID NO: 41 dTdT (sense GAUUCAAUGUGAACGAUUA; antisense UAAUCGUUCACAUUGAAUC; listed as RNA, chemistry not fully specified)”: the “Relative expression level of JAK1, Mean value (Mean)” value (“Relative expression level of JAK1” for short) was found to be 32.40.
Still for that read-out and setting: under “siNC: non-targeting control sequence; sense strand SEQ ID NO: 43, antisense strand SEQ ID NO: 44 (sense UUCUCCGAACGUGUCACGUTT; antisense ACGUGACACGUUCGGAGAATT; Bought control siRNA with 3' TT overhangs, chemistry not given here, further chemistry not given here) [reference compound]” stands 100.00; under “siJAK1-4389: siRNA targeting JAK1; sense strand SEQ ID NO: 24, antisense strand SEQ ID NO: 38 (sense GGACUUAGCCCUCAAAUUUCA; antisense AAAUUUGAGGGCUAAGUCCAU; listed as RNA, chemistry not fully specified)”, 27.56.
Same read-out and setting: the figure for “siJAK1-5034: siRNA targeting JAK1; sense strand SEQ ID NO: 28, antisense strand SEQ ID NO: 42 (sense GAACGAUUACGGUCUUUAUGA; antisense AUAAAGACCGUAAUCGUUCAC; listed as RNA, chemistry not fully specified)” is 35.89.
Still for that read-out and setting: under “siJAK1-3283: siRNA targeting JAK1; sense strand SEQ ID NO: 20 dTdT, antisense strand SEQ ID NO: 34 dTdT (sense AGAACAUUGUGAAGUACAA; antisense UUGUACUUCACAAUGUUCU; listed as RNA, chemistry not fully specified)” stands 16.41; under “siJAK1-1131: siRNA targeting JAK1; sense strand SEQ ID NO: 17, antisense strand SEQ ID NO: 31 (sense GCGAUAUAUUCCAGAAACAUU; antisense UGUUUCUGGAAUAUAUCGCUU; listed as RNA, chemistry not fully specified)”, 23.55; under “siJAK1-4410: siRNA targeting JAK1; sense strand SEQ ID NO: 25 dTdT, antisense strand SEQ ID NO: 39 dTdT (sense CAGUAUCUAUACAGUACUA; antisense UAGUACUGUAUAGAUACUG; listed as RNA, chemistry not fully specified)”, 24.41.
For “siJAK1-2714: siRNA targeting JAK1; sense strand SEQ ID NO: 19 dTdT, antisense strand SEQ ID NO: 33 dTdT (sense GGUGCUGUCUAGGCAAGAA; antisense UUCUUGCCUAGACAGCACC; listed as RNA, chemistry not fully specified)”, the “Relative expression level of JAK1” value was found to be 19.12.
Same read-out and setting: the figure for “siJAK1-826: siRNA targeting JAK1; sense strand SEQ ID NO: 16 dTdT, antisense strand SEQ ID NO: 30 dTdT (sense GGCAUGGAACCAACGACAA; antisense UUGUCGUUGGUUCCAUGCC; listed as RNA, chemistry not fully specified)” is 14.18; for “siJAK1-2200: siRNA targeting JAK1; sense strand SEQ ID NO: 18 dTdT, antisense strand SEQ ID NO: 32 dTdT (sense GUUUCGAUCGGAUCCUCAA; antisense UUGAGGAUCCGAUCGAAAC; listed as RNA, chemistry not fully specified)” it is 34.77.
Same read-out and setting: under “siJAK1-4096: siRNA targeting JAK1; sense strand SEQ ID NO: 22 dTdT, antisense strand SEQ ID NO: 36 dTdT (sense GGCACACUGUAGUGCUUAA; antisense UUAAGCACUACAGUGUGCC; listed as RNA, chemistry not fully specified)” stands 38.56; under “siJAK1-4359: siRNA targeting JAK1; sense strand SEQ ID NO: 23, antisense strand SEQ ID NO: 37 (sense CACAUUAAUCAUAGAUAAAGA; antisense UUUAUCUAUGAUUAAUGUGCC; listed as RNA, chemistry not fully specified)”, 31.11; under “siJAK1-4627: siRNA targeting JAK1; sense strand SEQ ID NO: 26 dTdT, antisense strand SEQ ID NO: 40 dTdT (sense GCAUGUUAAUUCUCAAGAA; antisense UUCUUGAGAAUUAACAUGC; listed as RNA, chemistry not fully specified)”, 38.64.
On the same count and under the same terms, the figure for “siJAK1-474: siRNA targeting JAK1; sense strand SEQ ID NO: 15 dTdT, antisense strand SEQ ID NO: 29 dTdT (sense GAAUAAAUGCAGUAUCUAA; antisense UUAGAUACUGCAUUUAUUC; listed as RNA, chemistry not fully specified)” is 20.24.
Regarding “siJAK1-3630: siRNA targeting JAK1; sense strand SEQ ID NO: 21 dTdT, antisense strand SEQ ID NO: 35 dTdT (sense GAAUGUUUAAUGCAAUCUA; antisense UAGAUUGCAUUAAACAUUC; listed as RNA, chemistry not fully specified)”, the “Relative expression level of JAK1” value is 25.58.

For another data set, the system named is JAK1 gene. The data set can be described thus: qPCR of JAK1 expression in HaCaT cells transfected with modified siJAK1. As to conditions: siRNA 50 nM, 48 h after transfection, JAK1 by qPCR, siNC = 100.00. It is filed as cell-based, human. How it is done:
as §1, §2, §3, §4
According to the method described in Example 2, human keratinocyte HaCaT cells were transfected with the modified siJAK1 at an siRNA working concentration of 50 nM. The expression level of JAK1 was detected by qPCR 48 h after the transfection. The controls included siNC and unmodified siJAK1 at the same concentration.
Turning to “siNC: non-targeting control sequence; sense strand SEQ ID NO: 43, antisense strand SEQ ID NO: 44 (sense UUCUCCGAACGUGUCACGUTT; antisense ACGUGACACGUUCGGAGAATT; Bought control siRNA with 3' TT overhangs, chemistry not given here, further chemistry not given here) [reference compound]”, the “Relative expression level, Mean value (Mean)” value is 100.00.
Still for that read-out and setting: the figure for “siJAK1-826-m4: pseudouridine-modified siJAK1-826; sense strand SEQ ID NO: 49, antisense strand SEQ ID NO: 53 (sense GGCAUGGAACCAACGACAAUU; antisense UUGUCGUUGGUUCCAUGCCTT; sense: sugars from the 5' end r19 d2, [Ψ] at 5, backbone and T or U not given here; antisense: sugars from the 5' end r19 d2, [Ψ] at 1, 2, 4, 7, 8, 11, 12, 16, backbone not given here)” is 13.55; for “siJAK1-3283: siRNA targeting JAK1; sense strand SEQ ID NO: 20 dTdT, antisense strand SEQ ID NO: 34 dTdT (sense AGAACAUUGUGAAGUACAA; antisense UUGUACUUCACAAUGUUCU; listed as RNA, chemistry not fully specified)” it is 14.73.
Consider “siJAK1-3283-m10: pseudouridine-modified siJAK1-3283; sense strand SEQ ID NO: 50, antisense strand SEQ ID NO: 54 (sense AGAACAUUGUGAAGUACAATT; antisense UUGUACUUCACAAUGUUCUTT; sense: sugars from the 5' end r19 d2, [Ψ] at 7, 8, 10, 15, backbone not given here; antisense: sugars from the 5' end r19 d2, [Ψ] at 1, 2, 4, 7, 8, 14, 16, 17, 19, backbone not given here)”, for which the “Relative expression level, Mean value (Mean)” value is listed as 15.89.
Same read-out and setting: the figure for “siJAK1-826: siRNA targeting JAK1; sense strand SEQ ID NO: 16 dTdT, antisense strand SEQ ID NO: 30 dTdT (sense GGCAUGGAACCAACGACAA; antisense UUGUCGUUGGUUCCAUGCC; listed as RNA, chemistry not fully specified)” is 13.33.
